Values quoted from earlier work as cited in paper PMC11272821, “Mechanistic safety assessment via multi-omic characterisation of systemic pathway perturbations following in vivo MAT2A inhibition” (Archives of Toxicology, 2024).

Parameters: method as in Agios Pharmaceuticals, AACR-NCI-EORTC 2019
Settings: ref Agios Pharmaceuticals, AACR-NCI-EORTC 2019, cited from earlier work

SMILES: COc1ccc(-c2c(Nc3ccccn3)[nH]c3c(C4=CCCCC4)c(-c4ccccc4)nn3c2=O)cc1 [AG-270]
- adverse finding in Phase 1 clinical trial (proposed result of UGT1A1 inhibition): hyperbilirubinemia
- dose limiting toxicity in Phase 1 clinical trial: reversible, acute liver injury
